Key:
[1] = biological target: T1, CT775 (LpaT), lysophospholipid acyltransferase (Chlamydia trachomatis, UniProt O84780); assay: NBD-PC formation, TLC, bee venom PLA2 digestion, microsomes; assay type: biochemical; details: 1 µM NBD-C16-CoA, 10 µM 1-C16-GPC, pH 7.4, 30 °C; acyl acceptor
T1 construct: gene CT_775; expressed in E. coli BL21(DE3), membrane fraction (microsomes); cloning reported previously
T1 sequence (O84780 1-253): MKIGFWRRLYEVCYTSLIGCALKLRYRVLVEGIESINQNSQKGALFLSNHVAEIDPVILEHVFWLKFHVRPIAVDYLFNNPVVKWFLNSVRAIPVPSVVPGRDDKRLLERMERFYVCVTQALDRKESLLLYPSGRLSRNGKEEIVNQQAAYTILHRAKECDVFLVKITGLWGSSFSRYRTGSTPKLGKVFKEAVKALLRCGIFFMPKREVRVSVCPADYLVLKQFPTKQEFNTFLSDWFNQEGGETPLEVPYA

[2] = biological target: T2, hACSL6-iso2 (human long-chain acyl-CoA synthetase 6) (Homo sapiens, UniProt Q9UKU0); assay: acyl-CoA / acyl-AMP formation; assay type: biochemical; details: with fatty acid and CoASH
T2 construct: gene ACSL6; hexahistidine fusion, Ni-NTA partially purified, CHAPS lysis
T2 sequence (Q9UKU0 1-697): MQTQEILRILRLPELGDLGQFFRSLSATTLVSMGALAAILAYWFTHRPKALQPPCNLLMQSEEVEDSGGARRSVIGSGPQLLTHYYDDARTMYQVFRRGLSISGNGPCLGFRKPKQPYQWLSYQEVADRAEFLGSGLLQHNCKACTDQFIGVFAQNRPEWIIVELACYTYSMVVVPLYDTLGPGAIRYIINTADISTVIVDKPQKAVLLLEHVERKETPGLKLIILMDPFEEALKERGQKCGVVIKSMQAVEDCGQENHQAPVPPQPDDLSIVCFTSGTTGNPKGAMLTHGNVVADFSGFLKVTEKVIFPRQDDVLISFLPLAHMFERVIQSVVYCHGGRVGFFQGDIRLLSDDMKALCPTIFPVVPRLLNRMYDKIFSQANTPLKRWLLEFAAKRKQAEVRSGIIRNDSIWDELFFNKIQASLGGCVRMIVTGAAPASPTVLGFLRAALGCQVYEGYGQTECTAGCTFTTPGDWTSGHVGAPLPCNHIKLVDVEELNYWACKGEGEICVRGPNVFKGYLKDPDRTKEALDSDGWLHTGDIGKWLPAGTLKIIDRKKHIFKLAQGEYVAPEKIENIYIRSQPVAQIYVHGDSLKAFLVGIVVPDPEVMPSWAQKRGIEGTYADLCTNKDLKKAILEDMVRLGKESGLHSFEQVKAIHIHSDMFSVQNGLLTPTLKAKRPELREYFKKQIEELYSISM

human LPCAT1 (hLPCAT1) = biological target: T3, human LPCAT1 (hLPCAT1) (Homo sapiens, UniProt Q8NF37); assay: competition with NBD-C16-CoA acylation of 1-C16-GPC, TLC fluorescence, microsomes; assay type: biochemical; details: 0.5 µM NBD-C16-CoA, 20 µM 1-C16-GPC, 0.25-1.0 µM competitor, 30 °C; competing acyl donor
T3 construct: expressed in E. coli BL21(DE3), membrane fraction; cloning reported previously
T3 sequence (Q8NF37 1-534): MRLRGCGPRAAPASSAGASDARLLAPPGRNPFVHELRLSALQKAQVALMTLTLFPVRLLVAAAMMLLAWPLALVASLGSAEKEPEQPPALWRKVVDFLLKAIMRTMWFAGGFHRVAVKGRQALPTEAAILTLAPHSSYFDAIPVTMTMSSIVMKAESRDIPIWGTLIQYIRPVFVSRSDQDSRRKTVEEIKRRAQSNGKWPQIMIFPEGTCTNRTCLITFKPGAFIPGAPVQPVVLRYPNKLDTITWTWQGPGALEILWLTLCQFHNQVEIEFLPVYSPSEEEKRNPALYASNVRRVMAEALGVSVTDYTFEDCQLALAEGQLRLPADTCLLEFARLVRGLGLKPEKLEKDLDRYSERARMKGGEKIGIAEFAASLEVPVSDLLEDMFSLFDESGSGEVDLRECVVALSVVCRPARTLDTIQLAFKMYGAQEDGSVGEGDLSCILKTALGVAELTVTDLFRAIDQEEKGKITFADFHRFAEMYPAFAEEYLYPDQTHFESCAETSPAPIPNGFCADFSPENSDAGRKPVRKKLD

[3] = biological target: T2, hACSL6-iso2 (human long-chain acyl-CoA synthetase 6); assay: competition with […]C18:1-CoA formation; assay type: biochemical; details: 1 µM [14C]C18:1-OH, ATP, CoASH, 0.15 µM enzyme, 30 °C; competing substrate
[4] = biological target: T4, CT699 (PsdD), PS-decarboxylase (Chlamydia trachomatis, UniProt P0CD79); assay: conversion of NBD-PS to NBD-PE, TLC fluorescence, E. coli lysate vs vector control; assay type: cell-based; details: 2 µM NBD-PS, Tris pH 7.4, 37 °C; labelled compound
T4 construct: gene psd; full-length, pET28a, expressed in E. coli BL21(DE3), lysate
T4 sequence (P0CD79 1-259): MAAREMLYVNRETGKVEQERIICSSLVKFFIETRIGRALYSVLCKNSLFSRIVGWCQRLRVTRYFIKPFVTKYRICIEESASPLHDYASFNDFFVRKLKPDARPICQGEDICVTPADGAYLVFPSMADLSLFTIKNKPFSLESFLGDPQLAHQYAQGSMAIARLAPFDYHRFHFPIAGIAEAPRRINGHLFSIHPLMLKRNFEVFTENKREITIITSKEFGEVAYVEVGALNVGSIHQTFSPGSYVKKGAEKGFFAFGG
T4 sequence (P0CD79 260-301): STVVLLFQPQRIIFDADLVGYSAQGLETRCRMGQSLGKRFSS

[5] = biological target: T5, AasC (CT776), Chlamydia acyl-ACP synthase (Chlamydia trachomatis, UniProt O84781); assay: […]-phospholipid formation from […]-palmitate in E. coli lysate, TLC; assay type: biochemical; details: 5 µM [14C]C16-OH, 10 mM ATP, 20 mM MgCl2, pH 7.4, 30 °C; E. coli acyl carrier and acyltransferase in lysate
T5 construct: gene aas; full-length, pET28a, expressed in E. coli BL21(DE3), crude lysate
T5 sequence (O84781 1-537): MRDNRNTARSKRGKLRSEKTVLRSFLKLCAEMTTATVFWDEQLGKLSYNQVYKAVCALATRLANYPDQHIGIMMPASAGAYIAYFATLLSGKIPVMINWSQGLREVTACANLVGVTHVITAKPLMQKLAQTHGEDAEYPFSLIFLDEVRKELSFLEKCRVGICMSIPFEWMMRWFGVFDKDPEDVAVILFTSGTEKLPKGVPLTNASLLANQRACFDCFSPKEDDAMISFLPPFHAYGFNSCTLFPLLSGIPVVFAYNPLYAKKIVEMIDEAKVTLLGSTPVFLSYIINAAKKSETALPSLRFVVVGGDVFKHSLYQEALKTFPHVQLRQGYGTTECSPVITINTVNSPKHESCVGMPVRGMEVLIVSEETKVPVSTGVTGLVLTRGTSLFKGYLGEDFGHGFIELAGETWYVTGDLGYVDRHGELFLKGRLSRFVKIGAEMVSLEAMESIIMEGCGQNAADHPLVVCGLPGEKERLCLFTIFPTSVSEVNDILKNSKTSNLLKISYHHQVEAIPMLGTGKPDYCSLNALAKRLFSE

[6] = biological target: T5, AasC (CT776), Chlamydia acyl-ACP synthase; assay: as above; assay type: biochemical; details: 5 µM [14C]C16-OH, 10 mM ATP, 20 mM MgCl2, pH 7.4, 30 °C; E. coli acyl carrier and acyltransferase in lysate; remark: listed apart in the source

CCCCCCCCCCCCCCCC(=O)OC[C@@H](O)COP(=O)([O-])OCC[N+](C)(C)C [1-C16-sn-glycerol-3-P-choline, 1-palmitoyl-2-hydroxy-sn-glycero-3-phosphocholine]
NBD-PC formation, TLC, bee venom PLA2 digestion, microsomes [1]: NBD-acyl group had been transferred by CT775 to the sn2 position of the 1-C16-GPC isomer

Nc1ncnc2c1ncn2[C@@H]1O[C@H](COP(=O)(O)OP(=O)(O)OP(=O)(O)O)[C@@H](O)[C@H]1O [ATP]
acyl-CoA / acyl-AMP formation [2]: In the presence of both ATP and CoASH, acyl-CoA is formed from fatty acids

CCCCCCCC/C=C\CCCCCCCC(=O)SCCNC(=O)CCNC(=O)[C@H](O)C(C)(C)COP(=O)(O)OP(=O)(O)OC[C@H]1O[C@@H](n2cnc3c(N)ncnc32)[C@H](O)[C@@H]1OP(=O)(O)O [C18:1-CoA]
% of activity without competitor (human LPCAT1 (hLPCAT1)): MeC18-CoA was a stronger competitor than C18:1-CoA

CC(C)CCCCCCCCCC(=O)O [MeC12-OH]
competition at 10 μM [3]: The shorter chain MeC12-OH also competed but not as efficiently as MeC18-OH

CC(C)CCCCCCCCCCCCCCCC(=O)SCCNC(=O)CCNC(=O)[C@H](O)C(C)(C)COP(=O)(O)OP(=O)(O)OC[C@H]1O[C@@H](n2cnc3c(N)ncnc32)[C@H](O)[C@@H]1OP(=O)(O)O [MeC18-CoA]
% of activity without competitor (human LPCAT1 (hLPCAT1)): NBD-C16-CoA to 1-acyl-GPC by hLPCAT1 was strongly reduced in the presence of MeC18-CoA

CC(C)CCCCCCCCCCCCCCCC(=O)O [MeC18-OH]
competition at 10 μM [3]: this long-chain odd fatty acid was as good a substrate for hACSL6 as C18:1-OH

CCCCCCCCCCCCCCCC(=O)OC[C@H](COP(=O)(O)OC[C@H](N)C(=O)O)OC(=O)CCCCCNc1ccc([N+](=O)[O-])c2nonc12 [NBD-PS, 1-palmitoyl-2-(6-[(7-nitro-2-1,3-benzoxadiazol-4-yl)amino]hexanoyl)-sn-glycero-3-phosphoserine]
conversion of NBD-PS to NBD-PE, TLC fluorescence, E. coli lysate vs vector contr [4]: CT699 was active and able to convert fluorescent NBD-PS into NBD-PE

CN(CCOc1ccc(CC2SC(=O)NC2=O)cc1)c1ccccn1 (stereo not drawn) [rosiglitazone G]
% inhibition at 100 μM [5]: both drugs had a significant inhibitory effect on FA incorporation in the presence of the AasC

CCC/C=C/C/C=C/C=C/C=N/NN=O [triacsin C]
% inhibition at 5 μM [6]: both drugs had a significant inhibitory effect on FA incorporation in the presence of the AasC

Reference: article PMC5693948, “Phosphatidylserine decarboxylase CT699, lysophospholipid acyltransferase CT775, and acyl-ACP synthase CT776 provide membrane lipid diversity to Chlamydia trachomatis” (Scientific Reports, 2017)
